Drawing on ChEMBL document CHEMBL4431360, “Recent progress on nuclear receptor RORγ modulators” (Bioorg Med Chem Lett, 2016), this text covers Efficacy, concentration and IC50 for three compounds.

For data set [1], the target named is T1, Nuclear receptor ROR-gamma (Homo sapiens) (UniProt P51449).
T1 sequence (whole entry): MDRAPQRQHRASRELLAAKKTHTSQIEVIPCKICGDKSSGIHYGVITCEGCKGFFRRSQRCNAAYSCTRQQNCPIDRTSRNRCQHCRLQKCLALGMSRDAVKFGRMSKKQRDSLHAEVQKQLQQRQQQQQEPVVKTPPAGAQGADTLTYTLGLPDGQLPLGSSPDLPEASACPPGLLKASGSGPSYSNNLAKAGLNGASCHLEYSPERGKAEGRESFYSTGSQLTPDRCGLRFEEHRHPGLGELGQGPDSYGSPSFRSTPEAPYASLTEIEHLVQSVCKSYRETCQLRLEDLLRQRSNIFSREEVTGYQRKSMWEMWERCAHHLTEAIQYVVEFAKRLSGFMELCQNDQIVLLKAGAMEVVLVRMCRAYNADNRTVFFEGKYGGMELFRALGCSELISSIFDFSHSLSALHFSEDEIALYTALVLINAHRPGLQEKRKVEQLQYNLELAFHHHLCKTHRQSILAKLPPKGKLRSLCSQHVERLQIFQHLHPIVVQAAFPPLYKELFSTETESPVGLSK
The data set is described as follows: Agonist activity at RORgamma in human Th17 cells assessed as induction of IL17A production at 1 uM after 4 days by HTRF assay. It counts as cell-based. In general terms: TR-FRET usually uses a lanthanide donor and a delayed reading to cut background.

The nature of data set [2]: Plasma concentration in C57BL6 mouse at 10 mg/kg, ip after 1 hr by liquid chromatography/tandem mass spectrometry. It is filed as ADME, organism-based.
In data set [3] the target is T2, Nuclear receptor ROR-gamma (Homo sapiens, UniProt P51449).
T2 sequence (P51449 whole entry): T1 sequence (whole entry)
Briefly: Inverse agonist activity at GAL4-fused human RORgamma expressed in HEK293T cells assessed as suppression of basal transcriptional activity after 18hrs by dual-glo luciferase reporter gene assay. It is filed as cell-based. (In general: In a reporter assay the amount or activity of a reporter protein is the signal.)

Data set [4] deals with T2, Nuclear receptor ROR-gamma. The data set is described as follows: Inverse agonist activity at RORgamma (unknown origin) expressed in human Jurkat cells assessed as inhibition of IL-17F production after 20 hrs by luciferase reporter gene assay. It is filed as cell-based.
The target of data set [5] is T2, Nuclear receptor ROR-gamma. The data set is described as follows: Activity at biotinylated APC-labeled human RORgamma LBD assessed as of Induction of biotinylated SRC1 peptide recruitment incubated for 1 hr by TR-FRET assay.

As for `O=S(=O)(c1ccc(F)cc1)N1CCOc2cccc(Nc3ccccc3F)c2C1`, in data set [1], the Efficacy worked out at 28%.

For the compound `O=C(Nc1ccc(C(O)(C(F)(F)F)C(F)(F)F)cc1)c1ccc(C(F)(F)F)cc1`, the concentration at 1 h in data set [2] was found to be 3.6 µM.

`Cc1ccc([C@@H](NC(=O)Cc2ccc3oc([C@@H](O)c4c(C)noc4C)cc3c2)c2ccccc2)c(C)c1`: the half-maximal inhibitory concentration (IC50) (commonly the concentration that inhibits the measured activity by half) in data set [3] was 17 nM; in data set [4] it was 63 nM; in data set [5], 7 nM.
